“And” between values parts separate entries of the source, which are not always exact repeats. Equal values may be shown once. Read-outs that look alike come from different tables or passages of the source.
Tests used:
[1] = target: T1, PARP (Mus musculus, UniProt P11103); assay: PARP enzyme inhibition assay ([32P]-NAD+ incorporation into TCA-precipitated poly(ADP-ribose), oligonucleotide-activated, permeabilised L1210 cells); type: biochemical, murine (L1210 leukaemia cells); conditions: for IC50: permeabilised L1210 cells, 26° C., 5 minutes
T1 construct: endogenous in cells; host or cells: L1210 murine leukaemia cells, permeabilised by hypotonic buffer and cold shock
Source text: The poly(ADP-ribose) which is then synthesised by the enzyme can be precipitated by tri-chloracetic acid (TCA) and the amount of radio-labelled ^32 p incorporated therein measured, e.g. using a scintillation counter, to give a measure of the activity of the PARP under the particular conditions of the experiment. By repeating the experiment following the same procedure, and under the same conditions, in the presence of each compound to be tested the reduction in enzyme activity, representative of the inhibitory effect of the test compound, can then be ascertained from the reduction, if any, of the amount of [^32 p] measured in the TCA precipitated poly(ADP-ribose).
Thus, with a range of different compounds a set of comparative values for inhibitory activity can be obtained.
In practice, L1210 murine leukaemia cells have been used as a source of the PARP enzyme after being rendered permeable to exogenous [^32 P]NAD by exposure to hypotonic buffer and cold shock. […] This oligonucleotide sequence snaps back on itself to form a double-stranded molecule with a single blunt end and provides an effective substrate for activation of PARP.
The experimental protocol adopted, in which a synthetic oligonucleotide as mentioned above is introduced as a specific activator of PARP, discriminates between PARP and other mono-ADP-ribosyltransferases in the cells.
The oligonucleotide having the palindromic sequence […], synthesised by conventional means, was vacuum dried and stored as pellets in a freezer. Before use, it was made up to 200 μg/ml in 10 mM Tris/HCl, pH 7.8, with each pellet being dissolved completely in […] of buffer. The solution was then heated to 60° C. in a water bath for 15 minutes, and allowed to cool slowly to ensure correct reannealing. After adding 9.5 ml of buffer, the concentration was checked by measuring the optical density of a diluted sample at 260 nm. The main solution was then diluted to a concentration of 200 μg/ml and stored in 500 μl aliquots in a freezer, ready for use.
The L1210 cells used as the source of the PARP enzyme were maintained as a suspension culture in RPMI medium+10% foetal bovine serum+glutamine and antibiotics (penicillin and streptomycin). HEPES and sodium bicarbonate were also added, and the cells were seeded in 100 ml-200 ml of medium such that there would be a concentration of approximately 8×10^5 /ml at the time of carrying out an assay.
The solubility of the compound was then checked by adding a quantity of the DMSO solution to a quantity of the isotonic buffer, in the required final proportions that were to be used in carrying out the assay, and after an interval the solution was examined under a microscope for any signs of crystals forming.
A desired quantity of the cells, ascertained by counting with a haemocytometer, was then centrifuged (1500 rpm in a "Europa" model 24M centrifuge for 5 minutes), the supernatant removed, and the pellets obtained were resuspended in 20 ml Ca^++ Mg^++ free phosphate buffered saline (Dulbeco's modification A, abbreviated Dul A) at 4° C. before centrifuging again at 1500 rpm and 4° C. After again removing the supernatant, the cells were resuspended at a concentration of 3×10^7 cells/ml in ice cold hypotonic buffer and left for 30 minutes on ice. Nine volumes were then added of ice cold isotonic buffer, and the cells, now rendered permeable to exogenous NAD^+, were then used within the next hour for carrying out an assay. The permeablisation of the cells may be checked at this stage by adding duplicate aliquots of cells to an equal volume of trypan blue, leaving for 5 minutes and then counting on a haemocytometer. Those rendered permeable will take up the Trypan blue and appear coloured.

[2] = system: L1210 murine leukaemia cells; assay: in vitro cytotoxicity assay (colony formation, L1210 cells, NU1064 with or without temozolomide); type: cell-based; conditions: for relative plating efficiency, NU1064 with temozolomide: 24 hours, normalised to temozolomide alone = 100%
Protocol: Again using cultures of the murine leukaemia L1210 cell line, growth inhibition experiments were carried out to assess the cytostatic effects of the compounds and clonogenic survival assays were performed to assess cytotoxicity, especially in relation to use of the compounds in conjunction with DNA damaging cytotoxic agents such as cytotoxic antitumour drugs or gamma irradiation. […] After 1 week colonies of viable cells were stained with MTT (1 ml 0.5 mg/ml) and counted.

[3] = read-out: IC50 value (PARP inhibition)

T1 sequence (P11103 whole entry): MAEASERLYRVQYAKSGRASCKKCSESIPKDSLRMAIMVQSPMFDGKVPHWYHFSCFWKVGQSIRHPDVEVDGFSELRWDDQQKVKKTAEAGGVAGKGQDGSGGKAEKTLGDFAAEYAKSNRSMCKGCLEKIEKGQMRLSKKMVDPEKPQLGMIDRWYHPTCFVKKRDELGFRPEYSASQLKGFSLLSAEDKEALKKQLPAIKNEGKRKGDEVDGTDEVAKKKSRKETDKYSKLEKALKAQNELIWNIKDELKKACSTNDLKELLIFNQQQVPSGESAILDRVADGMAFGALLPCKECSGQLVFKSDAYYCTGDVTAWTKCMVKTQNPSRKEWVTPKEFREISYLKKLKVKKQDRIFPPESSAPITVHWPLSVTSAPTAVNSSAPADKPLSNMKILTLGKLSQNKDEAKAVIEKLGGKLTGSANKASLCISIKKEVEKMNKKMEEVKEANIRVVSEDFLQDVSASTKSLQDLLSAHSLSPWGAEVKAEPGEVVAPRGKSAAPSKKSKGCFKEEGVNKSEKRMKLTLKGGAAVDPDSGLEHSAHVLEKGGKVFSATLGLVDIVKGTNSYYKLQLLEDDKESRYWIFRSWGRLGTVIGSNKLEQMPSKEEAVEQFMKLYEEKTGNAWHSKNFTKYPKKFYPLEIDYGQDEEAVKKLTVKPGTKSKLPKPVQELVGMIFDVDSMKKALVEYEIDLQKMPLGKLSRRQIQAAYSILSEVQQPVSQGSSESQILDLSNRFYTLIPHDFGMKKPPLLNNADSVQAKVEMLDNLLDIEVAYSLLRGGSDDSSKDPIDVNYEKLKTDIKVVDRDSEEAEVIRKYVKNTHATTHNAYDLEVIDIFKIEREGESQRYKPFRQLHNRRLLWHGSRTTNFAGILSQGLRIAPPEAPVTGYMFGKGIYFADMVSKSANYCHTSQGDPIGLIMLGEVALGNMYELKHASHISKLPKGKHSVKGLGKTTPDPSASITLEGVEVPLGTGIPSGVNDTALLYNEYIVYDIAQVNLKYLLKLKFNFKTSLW

Compound	IC50 [1, 3] [nM]	other results
CGGAATTCCG: single strand oligonucleotide having the palindromic sequence CGGAATTCCG, activator of PARP (chemistry not given here) [reference compound]		activation of PARP by oligonucleotide (in words) [1]: potent activator of the enzyme
NC(=O)c1cccc2[nH]cnc12 [NU1066, benzimidazole-4-carboxamide]		IC50 ([1]; IC50 value (PARP inhibition)): 1260 nM and 1020 nM
NC(=O)c1cccc2nc(-c3ccc(N)cc3)[nH]c12 [NU1103, 2-(4'-aminophenyl)benzimidazole-4-carboxamide]	91	
NC(=O)c1cccc(O)c1 [3-hydroxybenzamide, reference compound]	8000 ± 3500	
NC(=O)c1cccc2[nH]c(-c3ccc([N+](=O)[O-])cc3)nc12 [NU1091, 2-(4'-Nitrophenyl)-1-H-benzimidazole-4-carboxamide]	22	PARP inhibitory activity (in words) [1]: exceptionally high inhibitory activities
Cn1nnc2c(C(N)=O)ncn2c1=O [temozolomide, reference compound]		plating efficiency ([2]; 100 μM temozolomide alone, 24 hours (control 89%)): 32%
O=C(O)c1cccc2nc[nH]c12 [NU1067, benzimidazole-4-carboxylic acid]		% Inhibition at 10 μM or IC50 value (result in words) ([1]; result in words in table): Inactive
COc1ccc(-c2nc3c(C(N)=O)cccc3n2C(=O)c2ccccc2)cc1 [NU1101, 2-(4'-Methoxyphenyl)-1-benzoylbenzimidazole-4-carboxamide]	270	
N#Cc1ccc(-c2nc3c(C(N)=O)cccc3[nH]2)cc1 [NU1092, 2-(4'-Cyanophenyl)-1-H-benzimidazole-4-carboxamide]	33	PARP inhibitory activity (in words) [1]: exceptionally high inhibitory activities
Cc1nc2c(C(N)=O)cccc2[nH]1 [NU1064, 2-methylbenzimidazole-4-carboxamide]	1090 ± 230	relative plating efficiency, NU1064 with temozolomide ([2]; 100 μM NU1064 + 100 μM temozolomide): 28%; relative plating efficiency, NU1064 with temozolomide ([2]; 200 μM NU1064 + 100 μM temozolomide): 2%; viability at 100 µM ([2]; Mus musculus, L1210, 100 μM NU1064, 24 hours, normalised to control = 100%, read-out: relative plating efficiency, NU1064 alone): 72%; viability at 200 µM ([2]; Mus musculus, L1210, 200 μM NU1064, 24 hours, normalised to control = 100%, read-out: relative plating efficiency, NU1064 alone): 54%; potentiation of temozolomide cytotoxicity (in words) ([2]; increasing concentrations of NU1064 + 100 μM temozolomide): very marked increase in temozolomide cytotoxicity
COc1ccc(-c2nc3c(C(N)=O)cccc3n2C)cc1 [NU1090, 2-(4'-Methoxyphenyl)-1-methylbenzimidazole-4-carboxamide]	~100	
NC(=O)c1ccccc1 [benzamide, reference compound]	12400 ± 3100	
NC(=O)c1cccc2nc(-c3ccc(O)cc3)[nH]c12 [NU1085, 2-(4'-Hydroxyphenyl)-1-H-benzimidazole-4-carboxamide]		IC50 ([1]; IC50 value (PARP inhibition)): 77 nM
COc1ccc(-c2nc3c(C(N)=O)cccc3[nH]2)cc1 [NU1076, 2-(4'-methoxyphenyl)benzimidazole-4-carboxamide]	59	
NC(=O)c1cccc2[nH]c(C(F)(F)F)nc12 [NU1086, 2-trifluoromethylbenzimidazole-4-carboxamide]	1600	
COc1cccc(-c2nc3c(C(N)=O)cccc3[nH]2)c1 [NU1098, 2-(3'-Methoxyphenyl)-1-H-benzimidazole-4-carboxamide]	130	
NC(=O)c1cccc2[nH]c(-c3cccc(C(F)(F)F)c3)nc12 [NU1093, 2-(3'-Trifluoromethylphenyl)-1-H-benzimidazole-4-carboxamide]	76	

Source: patent publication US6100283A, “Benzimidazole compounds” (Newcastle University Ventures Limited, priority 1995, dated 2000)
